Read-outs that look alike come from different tables or passages of the source. *1 amine or outer side, *2 acyl side, *3 side chain or, on linkers, in order; H or OH if unused. Where a SMILES comes first, the peptide text is derived from it. Bridges are numbered along the chain shown (N, C = ends). [ ]: non-standard residue; d: D form. The star is where a group is joined. X148 = CN([C@@H](Cc1cc(Cl)ccc1-c1ccc(S(C)(=O)=O)nc1)C(=O)[*:2])[*:1]; X197 = CN([C@@H](Cc1cc(Cl)ccc1-c1ccc(=O)[nH]c1)C(=O)[*:2])[*:1]; X203 = CN([C@@H](Cc1cc(Cl)ccc1-c1cnn(C(F)F)c1)C(=O)[*:2])[*:1]; X123 = CN([C@@H](Cc1cc(Cl)ccc1-c1ccc[nH]c1=O)C(=O)[*:2])[*:1]; X147 = CCSc1ccc(-c2ccc(Cl)cc2C[C@@H](C(=O)[*:2])N(C)[*:1])cn1; X158 = CCOc1ccc(-c2ccc(Cl)cc2C[C@@H](C(=O)[*:2])N(C)[*:1])cn1; X183 = CN([C@@H](Cc1cc(Cl)ccc1-c1ccc2nncn2c1)C(=O)[*:2])[*:1]; X162 = COc1cncc(-c2ccc(Cl)cc2C[C@@H](C(=O)[*:2])N(C)[*:1])c1; X192 = COc1cccc(-c2ccc(Cl)cc2C[C@@H](C(=O)[*:2])N(C)[*:1])c1; NMehhhLys(Me) = CN([C@@H](CCCCCCCN(C)[*:3])C(=O)[*:2])[*:1]; X125 = CN([C@@H](Cc1cc(Cl)ccc1-c1cncc(F)c1)C(=O)[*:2])[*:1]; X139 = Cc1[nH]ncc1-c1ccc(Cl)cc1C[C@@H](C(=O)[*:2])N(C)[*:1]; X168 = Cc1ncc(-c2ccc(Cl)cc2C[C@@H](C(=O)[*:2])N(C)[*:1])o1; X188 = CN([C@@H](Cc1cc(Cl)ccc1-c1ccn(C)n1)C(=O)[*:2])[*:1]; X22 = CN([C@@H](Cc1cc(Cl)ccc1-c1cnn(C)c1)C(=O)[*:2])[*:1]; X199 = CN([C@@H](Cc1cc(Cl)ccc1C1=CCOC1)C(=O)[*:2])[*:1]; cBuCO(3,3-F2-1-CF3) = O=C(C1(C(F)(F)F)CC(F)(F)C1)*; Pro(trans-4-F) = O=C(O)[C@@H]1C[C@@H](F)CN1; Pivaloyl(3,3,3-F3) = CC(C)(C(=O)*)C(F)(F)F; Gly(cPr) = N[C@H](C(=O)O)C1CC1
How the values were obtained:
[1] = molecular target: T1, CyclinA2/CDK2 (Homo sapiens, UniProt P20248); assay: Fluorescence Polarization (FP) competitive binding assay, Cyclin A2/Cdk2;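 note: plates equilibrated two hours at room temperature before polarization reading, IC50 fitted from eight-concentration compound titration curves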
T1 construct: purchased CRELUX Protein Services

[2] = tested on: OVCAR3 cells; assay: MTT proliferation assay, OVCAR3; format: cell-based; details: 5 days compound exposure, 1:3 serial dilution starting at 10 μM;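 note: compound given as an 8- or 10-point series, one day after plating, with exposure covering roughly 3-4 cell doublings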
[3] = molecular target: T2, CyclinB1/CDK1 (Homo sapiens, UniProt P14635); assay: Fluorescence Polarization (FP) competitive binding assay, Cyclin B1/Cdk1;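 note: fluorescence polarization read after equilibration at room temperature, with IC50 taken from serially diluted dose-response curves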
T2 construct: purchased Eurofins, discovery 14-450

[4] = tested on: NCI-H1048 cells; assay: MTT proliferation assay, NCI-H1048; format: cell-based; details: 5 days compound exposure, 1:3 serial dilution starting at 10 μM;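 note: Dose-response in 96-well plates over 8 or 10 concentration points, with exposure spanning 3-4 cell doublings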
[5] = molecular target: T3, CyclinE1/CDK2 (Homo sapiens, UniProt P24864); assay: Fluorescence Polarization (FP) competitive binding assay, Cyclin E1/Cdk2;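 note: readings taken after two-hour equilibration at room temperature in HEPES buffer with NaCl, DTT, NP-40 and BSA, IC50 fitted from eight-concentration serial dilution series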
T3 construct: purchased Eurofins, discovery 14-475

[6] = 8 nM Cyclin A2/Cdk2, 2 nM FAM probe, average of 2-3 independent experiments, read-out: Cyclin A FP IC50
[7] = 10 nM Cyclin B1/Cdk1, 2 nM FAM probe; average of 2-3 independent experiments; read-out: Cyclin B FP IC50
[8] = 10 nM Cyclin E1/Cdk2, 2 nM FAM probe, average of 2-3 independent experiments, read-out: Cyclin E FP IC50
[9] = read-out: Cyclin B FP IC50; 10 nM Cyclin B1/Cdk1, 2 nM FAM probe; average of 2-3 independent experiments
[10] = read-out: Cyclin A FP IC50, 8 nM Cyclin A2/Cdk2, 2 nM FAM probe, average of 2-3 independent experiments

SMILES	IC50 [1, 6]	GI50 [2]	IC50 [3, 7]	GI50 [4]	IC50 [5, 8]	IC50 [1]	IC50 [3, 9]	IC50 [5]	IC50 [1, 10]
CC(C)C[C@@H]1NC(=O)[C@@H](N(C)C(=O)[C@@H](NC(=O)[C@@H]2C[C@@H](F)CN2C(=O)C2(C(F)(F)F)CC(F)(F)C2)C2CC2)CCCCCCCN(C)C(=O)[C@H](Cc2cc(Cl)ccc2-c2ccc3nncn3c2)N(C)C1=O [Example 178] ({cBuCO(3,3-F2-1-CF3)}-[Pro(trans-4-F)][Gly(cPr)][NMehhhLys(Me)]L[X183]; lactam 3-C)	50 nM	2570 nM	20 nM	1180 nM	5460 nM	–	–	–	–
CC(C)C[C@@H]1NC(=O)[C@@H](N(C)C(=O)[C@@H](NC(=O)[C@@H]2C[C@@H](F)CN2C(=O)C2(C(F)(F)F)CC(F)(F)C2)C2CC2)CCCCCCCN(C)C(=O)[C@H](Cc2cc(Cl)ccc2-c2ccc(=O)[nH]c2)N(C)C1=O [Example 180] ({cBuCO(3,3-F2-1-CF3)}-[Pro(trans-4-F)][Gly(cPr)][NMehhhLys(Me)]L[X197]; lactam 3-C)	30 nM	1220 nM	20 nM	730 nM	1860 nM	–	–	–	–
CCSc1ccc(-c2ccc(Cl)cc2C[C@H]2C(=O)N(C)CCCCCCC[C@H](N(C)C(=O)[C@@H](NC(=O)[C@@H]3C[C@@H](F)CN3C(=O)C3(C(F)(F)F)CC(F)(F)C3)C3CC3)C(=O)N[C@@H](CC(C)C)C(=O)N2C)cn1 [Example 181] ({cBuCO(3,3-F2-1-CF3)}-[Pro(trans-4-F)][Gly(cPr)][NMehhhLys(Me)]L[X147]; lactam 3-C)	40 nM	420 nM	20 nM	240 nM	1580 nM	–	–	–	–
CCOc1ccc(-c2ccc(Cl)cc2C[C@H]2C(=O)N(C)CCCCCCC[C@H](N(C)C(=O)[C@@H](NC(=O)[C@@H]3C[C@@H](F)CN3C(=O)C3(C(F)(F)F)CC(F)(F)C3)C3CC3)C(=O)N[C@@H](CC(C)C)C(=O)N2C)cn1 [Example 182] ({cBuCO(3,3-F2-1-CF3)}-[Pro(trans-4-F)][Gly(cPr)][NMehhhLys(Me)]L[X158]; lactam 3-C)	20 nM	130 nM	20 nM	60 nM	1170 nM	–	–	–	–
CC(C)C[C@@H]1NC(=O)[C@@H](N(C)C(=O)[C@@H](NC(=O)[C@@H]2C[C@@H](F)CN2C(=O)C2(C(F)(F)F)CC(F)(F)C2)C2CC2)CC=CCCCCNC(=O)[C@H](Cc2cc(F)ccc2-c2cnn(C)c2)N(C)C1=O [Example 195]	40 nM	10 nM	20 nM	10 nM	180 nM	–	–	–	–
COc1cccc(-c2ccc(Cl)cc2C[C@H]2C(=O)N(C)CCCCCCC[C@H](N(C)C(=O)[C@@H](NC(=O)[C@@H]3C[C@@H](F)CN3C(=O)C3(C(F)(F)F)CC(F)(F)C3)C3CC3)C(=O)N[C@@H](CC(C)C)C(=O)N2C)c1 [Example 197] ({cBuCO(3,3-F2-1-CF3)}-[Pro(trans-4-F)][Gly(cPr)][NMehhhLys(Me)]L[X192]; lactam 3-C)	20 nM	100 nM	20 nM	50 nM	310 nM	–	–	–	–
CC(C)C[C@@H]1NC(=O)[C@@H](N(C)C(=O)[C@@H](NC(=O)[C@@H]2C[C@@H](F)CN2C(=O)C2(C(F)(F)F)CC(F)(F)C2)C2CC2)CCCCCCCN(C)C(=O)[C@H](Cc2cc(Cl)ccc2-c2cncc(F)c2)N(C)C1=O [Example 198] ({cBuCO(3,3-F2-1-CF3)}-[Pro(trans-4-F)][Gly(cPr)][NMehhhLys(Me)]L[X125]; lactam 3-C)	50 nM	50 nM	20 nM	50 nM	1450 nM	–	–	–	–
COc1cncc(-c2ccc(Cl)cc2C[C@H]2C(=O)N(C)CCCCCCC[C@H](N(C)C(=O)[C@@H](NC(=O)[C@@H]3C[C@@H](F)CN3C(=O)C3(C(F)(F)F)CC(F)(F)C3)C3CC3)C(=O)N[C@@H](CC(C)C)C(=O)N2C)c1 [Example 199] ({cBuCO(3,3-F2-1-CF3)}-[Pro(trans-4-F)][Gly(cPr)][NMehhhLys(Me)]L[X162]; lactam 3-C)	30 nM	50 nM	20 nM	30 nM	910 nM	–	–	–	–
CC(C)C[C@@H]1NC(=O)[C@@H](N(C)C(=O)[C@@H](NC(=O)[C@@H]2C[C@@H](F)CN2C(=O)C2(C(F)(F)F)CC(F)(F)C2)C2CC2)CCCCCCCN(C)C(=O)[C@H](Cc2cc(Cl)ccc2-c2cnn(C(F)F)c2)N(C)C1=O [Example 200] ({cBuCO(3,3-F2-1-CF3)}-[Pro(trans-4-F)][Gly(cPr)][NMehhhLys(Me)]L[X203]; lactam 3-C)	30 nM	30 nM	20 nM	40 nM	890 nM	–	–	–	–
CC(C)C[C@@H]1NC(=O)[C@@H](N(C)C(=O)[C@@H](NC(=O)[C@@H]2C[C@@H](F)CN2C(=O)C2(C(F)(F)F)CC(F)(F)C2)C2CC2)CCCCCCCN(C)C(=O)[C@H](Cc2cc(Cl)ccc2-c2ccc(S(C)(=O)=O)nc2)N(C)C1=O [Example 201] ({cBuCO(3,3-F2-1-CF3)}-[Pro(trans-4-F)][Gly(cPr)][NMehhhLys(Me)]L[X148]; lactam 3-C)	–	60 nM	–	60 nM	–	30 nM	20 nM	1950 nM	–
CC(C)C[C@@H]1NC(=O)[C@@H](N(C)C(=O)[C@@H](NC(=O)[C@@H]2C[C@@H](F)CN2C(=O)C(C)(C)C(F)(F)F)C2CC2)CCCCCCCN(C)C(=O)[C@H](Cc2cc(Cl)ccc2-c2cnn(C)c2)N(C)C1=O [Example 204] ({Pivaloyl(3,3,3-F3)}-[Pro(trans-4-F)][Gly(cPr)][NMehhhLys(Me)]L[X22]; lactam 3-C)	–	10 nM	–	10 nM	–	–	20 nM	160 nM	20 nM
CC(C)C[C@@H]1NC(=O)[C@@H](N(C)C(=O)[C@@H](NC(=O)[C@@H]2C[C@@H](F)CN2C(=O)C2(C(F)(F)F)CC(F)(F)C2)C2CC2)CCCCCCCN(C)C(=O)[C@H](Cc2cc(Cl)ccc2-c2ccn(C)n2)N(C)C1=O [Example 205] ({cBuCO(3,3-F2-1-CF3)}-[Pro(trans-4-F)][Gly(cPr)][NMehhhLys(Me)]L[X188]; lactam 3-C)	–	30 nM	–	20 nM	–	30 nM	20 nM	480 nM	–
Cc1ncc(-c2ccc(Cl)cc2C[C@H]2C(=O)N(C)CCCCCCC[C@H](N(C)C(=O)[C@@H](NC(=O)[C@@H]3C[C@@H](F)CN3C(=O)C3(C(F)(F)F)CC(F)(F)C3)C3CC3)C(=O)N[C@@H](CC(C)C)C(=O)N2C)o1 [Example 206] ({cBuCO(3,3-F2-1-CF3)}-[Pro(trans-4-F)][Gly(cPr)][NMehhhLys(Me)]L[X168]; lactam 3-C)	–	20 nM	–	10 nM	–	–	20 nM	200 nM	20 nM
CC(C)C[C@@H]1NC(=O)[C@@H](N(C)C(=O)[C@@H](NC(=O)[C@@H]2C[C@@H](F)CN2C(=O)C2(C(F)(F)F)CC(F)(F)C2)C2CC2)CCCCCCCN(C)C(=O)[C@H](Cc2cc(Cl)ccc2-c2ccc[nH]c2=O)N(C)C1=O [Example 208] ({cBuCO(3,3-F2-1-CF3)}-[Pro(trans-4-F)][Gly(cPr)][NMehhhLys(Me)]L[X123]; lactam 3-C)	–	1960 nM	–	830 nM	–	210 nM	20 nM	6400 nM	–
CC(C)C[C@@H]1NC(=O)[C@@H](N(C)C(=O)[C@@H](NC(=O)[C@@H]2C[C@@H](F)CN2C(=O)C2(C(F)(F)F)CC(F)(F)C2)C2CC2)CCCCCCCN(C)C(=O)[C@H](Cc2cc(Cl)ccc2C2=CCOC2)N(C)C1=O [Example 209] ({cBuCO(3,3-F2-1-CF3)}-[Pro(trans-4-F)][Gly(cPr)][NMehhhLys(Me)]L[X199]; lactam 3-C)	–	20 nM	–	10 nM	–	–	20 nM	540 nM	20 nM
Cc1[nH]ncc1-c1ccc(Cl)cc1C[C@H]1C(=O)N(C)CCCCCCC[C@H](N(C)C(=O)[C@@H](NC(=O)[C@@H]2C[C@@H](F)CN2C(=O)C2(C(F)(F)F)CC(F)(F)C2)C2CC2)C(=O)N[C@@H](CC(C)C)C(=O)N1C [Example 211] ({cBuCO(3,3-F2-1-CF3)}-[Pro(trans-4-F)][Gly(cPr)][NMehhhLys(Me)]L[X139]; lactam 3-C)	–	30 nM	–	20 nM	–	50 nM	20 nM	1110 nM	–

From patent publication US20240408169A1 (priority 2023, published 2024)
